Activity calls are given as the source filed them. No rule for the calls is given here.

This assay deals with Mu-type opioid receptor (Homo sapiens) + Delta-type opioid receptor (Homo sapiens) (UniProt P35372+P41143). Description: agonists of MOR-DOR heterodimerization, dose response, counter-screen for MC4R biased agonist project, cell-based, luminescence (AID 602264). The settings on record: cell-based OPRM1-OPRD1 heterodimerization. (A counterscreen serves to expose hits that act by an unwanted route or on another target.)
Chain of Mu-type opioid receptor (Homo sapiens) + Delta-type opioid receptor (Homo sapiens) (P35372 whole entry, looked up): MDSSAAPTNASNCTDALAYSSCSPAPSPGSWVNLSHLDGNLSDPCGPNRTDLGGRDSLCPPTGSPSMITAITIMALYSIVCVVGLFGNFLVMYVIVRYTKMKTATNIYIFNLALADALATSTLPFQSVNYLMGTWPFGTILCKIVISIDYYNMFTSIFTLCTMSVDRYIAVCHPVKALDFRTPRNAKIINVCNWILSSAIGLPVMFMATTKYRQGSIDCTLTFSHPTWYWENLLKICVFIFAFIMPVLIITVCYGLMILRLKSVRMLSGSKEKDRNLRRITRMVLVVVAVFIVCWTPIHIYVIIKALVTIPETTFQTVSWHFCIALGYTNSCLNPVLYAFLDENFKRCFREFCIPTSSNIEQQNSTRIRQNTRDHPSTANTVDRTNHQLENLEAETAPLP
Chain of Mu-type opioid receptor (Homo sapiens) + Delta-type opioid receptor (Homo sapiens) (P41143 whole entry, looked up): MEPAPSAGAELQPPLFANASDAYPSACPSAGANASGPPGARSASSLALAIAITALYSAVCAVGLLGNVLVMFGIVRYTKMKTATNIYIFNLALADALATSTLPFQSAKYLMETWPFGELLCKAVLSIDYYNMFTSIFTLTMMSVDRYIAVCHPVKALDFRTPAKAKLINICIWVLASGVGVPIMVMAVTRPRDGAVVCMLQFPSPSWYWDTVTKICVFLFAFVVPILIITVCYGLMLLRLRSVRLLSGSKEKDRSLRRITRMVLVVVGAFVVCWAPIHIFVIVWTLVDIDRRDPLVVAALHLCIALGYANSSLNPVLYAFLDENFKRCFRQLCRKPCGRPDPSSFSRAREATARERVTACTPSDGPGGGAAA
On to `COc1ccc(-c2ccc3c(c2)S(=O)(=O)c2cccc(C(=O)NCc4cc(C)oc4C(F)(F)F)c2C3=O)cc1OC`, for which the EC50 was > 92.5 µM (inactive).

Turning to `C/C(=C\c1ccco1)C1C(C#N)=C(N)Oc2n[nH]c(-c3ccc(C)cc3)c21` (stereo unspecified), the EC50 was > 64.6 µM (inactive).

Take `O=C(NC(c1ccccc1)c1ccsc1)C1CCN(CCOc2ccc(Cl)cc2Cl)CC1` (stereo unspecified): the EC50 result was “inactive”.

In the case of `CC(=O)Nc1ccc(-c2csc(NC(=O)Nc3ccccc3)n2)cc1`, the EC50 was > 64.6 µM (inactive).

Regarding `CCN1CCN(Cc2ccc(NC(=O)c3cc(NC(=O)C(=O)c4c[nH]c5ccccc45)cc(OC)c3)cc2C(F)(F)F)CC1`, the EC50 is > 92.5 µM (inactive).

As to `COc1ccc(/C=N/NC(=O)c2ccc(COc3ccccc3Cl)o2)c(OC)c1C`, the EC50 was > 64.6 µM (inactive).

Usually EC50 stands for the concentration giving half of the maximal effect.

The values are drawn from PubChem BioAssay AID602264 (The Scripps Research Institute Molecular Screening Center, 2012).
